# Measurements reported in PubChem BioAssay AID1259411 (Chemical Carcinogenesis Research Information System (CCRIS), 2018).
# Active and inactive are the calls of the source. How the calls were made is not given here.
# Test system: rodent carcinogenicity bioassays, tumor incidence
# Experiment: CCRIS carcinogenicity studies
# Summary of the method: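 Archive of carcinogenicity, mutagenicity, tumor promotion and tumor inhibition results drawn from journals, NCI reports and other sources, expert-reviewed; covers 1985-2011 and is no longer updated.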
structure (smiles),measurement,setting,value
O=NN(CCO)CCO,carcinogen call,"Species: HAMSTER, Route: SUBCUTANEOUS, Tumor Site: Type of Lesion: LIVER, INJECTION SITE, NASAL CAVITY, TRACHEA, Tumor Site: Type of Lesion: LIVER, INJECTION SITE, NASAL CAVITY, TRACHEA",active; positive
same,carcinogen call,"Species: HAMSTER, Strain/Sex: SYRIAN/FEMALE, Route: SUBCUTANEOUS, Dose: 0, 250, 500, 1000 MG/KG IN SALINE 1/WK FOR DURATION OF STUDY (STUDY DURATION: 41-59 WK), Dose: 0, 250, 500, 1000 MG/KG IN SALINE 1/WK FOR DURATION OF STUDY (STUDY DURATION: 41-59 WK), Tumor Site: Type of Lesion: NASAL CAVITY: ADENOCARCINOMA, TRACHEA: PAPILLARY POLYP, LARYNX: PAPILLARY POLYP, Tumor Site: Type of Lesion: NASAL CAVITY: ADENOCARCINOMA, TRACHEA: PAPILLARY POLYP, LARYNX: PAPILLARY POLYP",active; positive
same,carcinogen call,"Species: HAMSTER, Strain/Sex: SYRIAN/MALE, Route: SUBCUTANEOUS, Dose: 0, 250, 500, 1000 MG/KG IN SALINE 1/WK FOR DURATION OF STUDY (STUDY DURATION: 45-54 WK), Dose: 0, 250, 500, 1000 MG/KG IN SALINE 1/WK FOR DURATION OF STUDY (STUDY DURATION: 45-54 WK), Tumor Site: Type of Lesion: NASAL CAVITY: ADENOCARCINOMA, TRACHEA: PAPILLARY POLYP, LARYNX: PAPILLARY POLYP, Tumor Site: Type of Lesion: NASAL CAVITY: ADENOCARCINOMA, TRACHEA: PAPILLARY POLYP, LARYNX: PAPILLARY POLYP",active; positive
same,carcinogen call,"Species: MOUSE, Strain/Sex: STRAIN-A/FEMALE, Route: ORAL, Dose: 0, 0.2 UMOL/ML IN DRINKING WATER FOR 10 WK (TOTAL DOSE: 0, 55 UMOL) FOLLOWED BY TAP WATER FOR 20 WK (STUDY DURATION: 30, Tumor Site: Type of Lesion: LUNG: TUMORS",active; positive
same,carcinogen call,"Species: RAT, Route: ORAL, Tumor Site: Type of Lesion: KIDNEY, LIVER",active; positive
same,carcinogen call,"Species: RAT, Strain/Sex: F344/FEMALE, Route: ORAL, Dose: 0, 150 MG/L IN DRINKING WATER 5 D/WK FOR 50 WK (TOTAL DOSE: 0; 5.6 MMOL) (STUDY DURATION: 124 WK), Dose: 0, 150 MG/L IN DRINKING WATER 5 D/WK FOR 50 WK (TOTAL DOSE: 0; 5.6 MMOL) (STUDY DURATION: 124 WK), Tumor Site: Type of Lesion: LIVER: HEPATOCELLULAR TUMOR",active; positive
COc1cc(S(=O)(=O)O)c(C)cc1N=Nc1c(O)ccc2cc(S(=O)(=O)O)ccc12,carcinogen call,"Species: MOUSE, Strain/Sex: CD-1/FEMALE, Route: ORAL, Dose: 0, 0.37, 1.39, 5.19% IN DIET FOR LIFE TO OFFSPRING OF ANIMALS ADMINISTERED THE SAME DOSES DURING BREEDING, GESTATION AND, Dose: 0, 0.37, 1.39, 5.19% IN DIET FOR LIFE TO OFFSPRING OF ANIMALS ADMINISTERED THE SAME DOSES DURING BREEDING, GESTATION AND",inactive; negative
same,carcinogen call,"Species: MOUSE, Strain/Sex: CD-1/MALE, Route: ORAL, Dose: 0, 0.37, 1.39, 5.19% IN DIET FOR LIFE TO OFFSPRING OF ANIMALS ADMINISTERED THE SAME DOSES DURING BREEDING, GESTATION AND, Dose: 0, 0.37, 1.39, 5.19% IN DIET FOR LIFE TO OFFSPRING OF ANIMALS ADMINISTERED THE SAME DOSES DURING BREEDING, GESTATION AND",inactive; negative
same,carcinogen call,"Species: MOUSE, Strain/Sex: HAM/ICR/FEMALE, Route: ORAL, Dose: 0, 0.37, 1.39, 5.19% IN DIET FOR LIFE TO OFFSPRING OF ANIMALS ADMINISTERED THE SAME DOSES DURING BREEDING, GESTATION AND, Dose: 0, 0.37, 1.39, 5.19% IN DIET FOR LIFE TO OFFSPRING OF ANIMALS ADMINISTERED THE SAME DOSES DURING BREEDING, GESTATION AND",inactive; negative
same,carcinogen call,"Species: MOUSE, Strain/Sex: HAM/ICR/MALE, Route: ORAL, Dose: 0, 0.37, 1.39, 5.19% IN DIET FOR LIFE TO OFFSPRING OF ANIMALS ADMINISTERED THE SAME DOSES DURING BREEDING, GESTATION AND, Dose: 0, 0.37, 1.39, 5.19% IN DIET FOR LIFE TO OFFSPRING OF ANIMALS ADMINISTERED THE SAME DOSES DURING BREEDING, GESTATION AND",inactive; negative
same,carcinogen call,"Species: RAT, Strain/Sex: SPRAGUE-DAWLEY/FEMALE, Route: ORAL, Dose: 0, 0.37, 1.39, 5.19% OF DIET BEGINNING WITH PARENTAL GENERATION AND CONTINUING WITH THE OFFSPRING FOLLOWING WEANING (STU, Dose: 0, 0.37, 1.39, 5.19% OF DIET BEGINNING WITH PARENTAL GENERATION AND CONTINUING WITH THE OFFSPRING FOLLOWING WEANING (STU",inactive; negative
same,carcinogen call,"Species: RAT, Strain/Sex: SPRAGUE-DAWLEY/MALE, Route: ORAL, Dose: 0, 0.37, 1.39, 5.19% OF DIET BEGINNING WITH PARENTAL GENERATION AND CONTINUING WITH THE PUPS FOLLOWING WEANING (STUDY DU, Dose: 0, 0.37, 1.39, 5.19% OF DIET BEGINNING WITH PARENTAL GENERATION AND CONTINUING WITH THE PUPS FOLLOWING WEANING (STUDY DU",inactive; negative
CCN(COC(C)=O)N=O,carcinogen call,"Species: RAT, Strain/Sex: F344/FEMALE, Route: SUBCUTANEOUS, Dose: 5.5 MG/KG 1/WK FOR 10 WK, Tumor Site: Type of Lesion: INJECTION SITE: MALIGNANT FIBROUS HISTIOCYTOMA, LUNG: ADENOMA, ADENOCARCINOMA, SQUAMOUS CELL CARCINOMA",active; positive
same,carcinogen call,"Species: RAT, Strain/Sex: F344/MALE, Route: SUBCUTANEOUS, Dose: 5.5 MG/KG 1/WK FOR 10 WK, Tumor Site: Type of Lesion: INJECTION SITE: MALIGNANT FIBROUS HISTIOCYTOMA, LUNG: ADENOMA, ADENOCARCINOMA, SQUAMOUS CELL CARCINOMA, THYROID GLAND: C, Tumor Site: Type of Lesion: INJECTION SITE: MALIGNANT FIBROUS HISTIOCYTOMA, LUNG: ADENOMA, ADENOCARCINOMA, SQUAMOUS CELL CARCINOMA, THYROID GLAND: C",active; positive
O=c1ccc(=O)[nH][nH]1,carcinogen call,"Species: MOUSE, Strain/Sex: ICR/HA SWISS/FEMALE, Route: SUBCUTANEOUS, Dose: 0, 0.5 MG IN 0.1 ML WATER ON D 1 AND 7 OF AGE THEN 0, 1 MG IN 0.2 ML ON D 14 AND 21 FOR A TOTAL DOSE OF 0, 3 MG (STUDY D, Dose: 0, 0.5 MG IN 0.1 ML WATER ON D 1 AND 7 OF AGE THEN 0, 1 MG IN 0.2 ML ON D 14 AND 21 FOR A TOTAL DOSE OF 0, 3 MG (STUDY D",inactive; negative
same,carcinogen call,"Species: MOUSE, Strain/Sex: ICR/HA SWISS/FEMALE, Route: SUBCUTANEOUS, Dose: 0, 5 MG IN 0.1 ML TRICAPRYLIN SUSPENSION ON D 1 OF AGE THEN 0, 10 MG IN 0.1 ML ON D 7, 0, 20 MG IN 0.2 ML ON D 14 AND 21, Dose: 0, 5 MG IN 0.1 ML TRICAPRYLIN SUSPENSION ON D 1 OF AGE THEN 0, 10 MG IN 0.1 ML ON D 7, 0, 20 MG IN 0.2 ML ON D 14 AND 21",inactive; negative
same,carcinogen call,"Species: MOUSE, Strain/Sex: ICR/HA SWISS/MALE, Route: SUBCUTANEOUS, Dose: 0, 5 MG IN 0.1 ML TRICAPRYLIN SUSPENSION ON D 1 OF AGE THEN 0, 10 MG IN 0.1 ML ON D 7, 0, 20 MG IN 0.2 ML ON D 14 AND 21, Dose: 0, 5 MG IN 0.1 ML TRICAPRYLIN SUSPENSION ON D 1 OF AGE THEN 0, 10 MG IN 0.1 ML ON D 7, 0, 20 MG IN 0.2 ML ON D 14 AND 21, Tumor Site: Type of Lesion: LIVER: HEPATOMA",active; positive
O=CNNc1nc(-c2ccc([N+](=O)[O-])o2)cs1,carcinogen call,"Species: HAMSTER, Route: ORAL, Tumor Site: Type of Lesion: FORESTOMACH, URINARY BLADDER",active; positive
same,carcinogen call,"Species: MOUSE, Route: ORAL, Tumor Site: Type of Lesion: FORESTOMACH, HEMATOPOIETIC SYSTEM (LEUKEMIA), LUNG, STOMACH, Tumor Site: Type of Lesion: FORESTOMACH, HEMATOPOIETIC SYSTEM (LEUKEMIA), LUNG, STOMACH",active; positive
same,carcinogen call,"Species: RAT, Route: ORAL, Tumor Site: Type of Lesion: HEMATOPOIETIC SYSTEM (LEUKEMIA), KIDNEY, LIVER, MAMMARY GLAND, Tumor Site: Type of Lesion: HEMATOPOIETIC SYSTEM (LEUKEMIA), KIDNEY, LIVER, MAMMARY GLAND",active; positive
